Marks after values point to notes of the source that are not given here.
Legend:
[1] = tested on: p110γ; conditions: read-out: IC50 p110γ; cited from earlier work
[2] = Plasma pharmacokinetics of copanlisib; format: in vivo, human
[3] = cycle 1 day 1, NHL expansion, 0.8 mg/kg, n=9, value (range)
[4] = cycle 1 day 1, diabetic expansion, 0.4 mg/kg, n=6, value (range)
[5] = cycle 1 day 1, solid tumors expansion, 0.8 mg/kg, n=25, value (range)
[6] = human, plasma, intravenous, 0.8 mg/kg

Compound: COc1c(OCCCN2CCOCC2)ccc2c1N=C(NC(=O)c1cnc(N)nc1)N1CCN=C21 [copanlisib, Copanlisib]
- IC50 [1]: 6.4 nM
- coefficients of variation of Cmax and AUC(0–25) ([2]; 0.1 to 1.2 mg/kg): 30–50%
- inter-patient variability of AUC ([2]; MTD 0.8 mg/kg): 47%
- terminal half-life ([2]; MTD 0.8 mg/kg, coefficient of variation 43%): ~38 h
- Cmax levels of unbound copanlisib ([2]; at the MTD): ~150 nM
- dose dependence of Cmax and AUC(0–25) ([2]; between 0.1 and 1.2 mg/kg): dose-proportionally
- tlast ([2]; cycle 1 day 1, MTD 0.8 mg/kg combined, n=7, value (range)): 142.5 (25.0–194.2)^e h
- Tmax ([2]; cycle 1 day 1, MTD 0.8 mg/kg combined, n=34, value (range)): 1.0 (0.5–3.0)^d h
- Tmax [2, 3]: 1.0 (0.5–1.0) h
- tlast [2, 3]: 167.0 (47.3–191.9) h
- tlast ([2]; cycle 1 day 1, cohort 1, 0.1 mg/kg, n=1, individual data): 48.6 h
- tlast ([2]; cycle 1 day 1, cohort 2, 0.2 mg/kg, n=3, value (range)): 48.4 (25.0–49.0) h
- tlast ([2]; cycle 1 day 1, cohort 3, 0.4 mg/kg, n=2, range): 167.8 to 170.2 h
- tlast ([2]; cycle 1 day 1, cohort 4, 0.8 mg/kg, n=7, value (range)): 142.5 (25.0–192.0) h
- tlast ([2]; cycle 1 day 1, cohort 5, 1.2 mg/kg, n=2, range): 29.3–167.2^b,c h
- Tmax [2, 4]: 1.0 (1.0–1.2) h
- tlast [2, 4]: 49.0 (48.9–167.4) h
- Tmax [2, 5]: 1.0 (0.5–3.0) h
- tlast [2, 5]: 118.5 (46.4–194.2) h
- Tmax ([2]; cycle 1 day 15, MTD 0.8 mg/kg combined, n=36, value (range)): 1.0 (0.5–1.3)^m h
- Tmax ([2]; cycle 1 day 15, solid tumors expansion, 0.8 mg/kg, n=22, value (range)): 1.0 (0.5–1.3)^l h
- accumulation after once-weekly administration ([2]; days 1 and 15): no accumulation
- concentration at 1 week ([2]; human, blood, intravenous, 0.8 mg/kg): 1.6 nM
- AUC(0-t) ([2]; human, plasma, intravenous, 0.1 mg/kg, AUC(0–25), cycle 1 day 1, cohort 1, 0.1 mg/kg, n=1, individual data): 170 ng·h/mL
- AUC(0-t) ([2]; human, plasma, intravenous, 0.1 mg/kg, AUC(0–25), cycle 1 day 15, cohort 1, 0.1 mg/kg, n=1, individual data): 175 ng·h/mL
- AUC(0-t) ([2]; human, plasma, intravenous, 0.1 mg/kg, AUC(0–tlast), cycle 1 day 1, cohort 1, 0.1 mg/kg, n=1, individual data): 254 ng·h/mL
- Cmax ([2]; human, plasma, intravenous, 0.1 mg/kg, cycle 1 day 1, cohort 1, 0.1 mg/kg, n=1, individual data): 32.9 ng/mL
- Cmax ([2]; human, plasma, intravenous, 0.1 mg/kg, cycle 1 day 15, cohort 1, 0.1 mg/kg, n=1, individual data): 37.6 ng/mL
- Tmax ([2]; human, plasma, intravenous, 0.1 mg/kg, tmax, cycle 1 day 1, cohort 1, 0.1 mg/kg, n=1, individual data): 0.5 h
- Tmax ([2]; human, plasma, intravenous, 0.2 mg/kg): 1 h
- AUC(0-t) ([2]; human, plasma, intravenous, 0.2 mg/kg, AUC(0–25), cycle 1 day 1, cohort 2, 0.2 mg/kg, n=3, geometric mean (%CV)): 384 ng·h/mL
- AUC(0-t) ([2]; human, plasma, intravenous, 0.2 mg/kg, AUC(0–25), cycle 1 day 15, cohort 2, 0.2 mg/kg, n=3, geometric mean (%CV)): 453 ng·h/mL
- AUC(0-t) ([2]; human, plasma, intravenous, 0.2 mg/kg, AUC(0–tlast), cycle 1 day 1, cohort 2, 0.2 mg/kg, n=3, geometric mean (%CV)): 472 ng·h/mL
- Cmax ([2]; human, plasma, intravenous, 0.2 mg/kg, cycle 1 day 1, cohort 2, 0.2 mg/kg, n=3, geometric mean (%CV)): 79.8 ng/mL
- Cmax ([2]; human, plasma, intravenous, 0.2 mg/kg, cycle 1 day 15, cohort 2, 0.2 mg/kg, n=3, geometric mean (%CV)): 89.4 ng/mL
- Tmax ([2]; human, plasma, intravenous, 0.2 mg/kg, tmax, cycle 1 day 1, cohort 2, 0.2 mg/kg, n=3, value (range)): 1.1 h
- Tmax ([2]; human, plasma, intravenous, 0.4 mg/kg): 1 h
- AUC(0-t) ([2]; human, plasma, intravenous, 0.4 mg/kg, AUC(0–25), cycle 1 day 1, cohort 3, 0.4 mg/kg, n=2, range): 348 to 556 ng·h/mL
- AUC(0-t) ([2]; human, plasma, intravenous, 0.4 mg/kg, AUC(0–25), cycle 1 day 1, diabetic expansion, 0.4 mg/kg, n=6, geometric mean (%CV)): 607 ng·h/mL
- AUC(0-t) ([2]; human, plasma, intravenous, 0.4 mg/kg, AUC(0–25), cycle 1 day 15, cohort 3, 0.4 mg/kg, n=2, range): 324 to 803 ng·h/mL
- AUC(0-t) ([2]; human, plasma, intravenous, 0.4 mg/kg, AUC(0–25), cycle 1 day 15, diabetic expansion, 0.4 mg/kg, n=6, geometric mean (%CV)): 687 ng·h/mL
- AUC(0-t) ([2]; human, plasma, intravenous, 0.4 mg/kg, AUC(0–tlast), cycle 1 day 1, cohort 3, 0.4 mg/kg, n=2, range): 722 to 1450 ng·h/mL
- AUC(0-t) ([2]; human, plasma, intravenous, 0.4 mg/kg, AUC(0–tlast), cycle 1 day 1, diabetic expansion, 0.4 mg/kg, n=6, geometric mean (%CV)): 1070 ng·h/mL
- Cmax ([2]; human, plasma, intravenous, 0.4 mg/kg, cycle 1 day 1, cohort 3, 0.4 mg/kg, n=2, range): 143 to 144 ng/mL
- Cmax ([2]; human, plasma, intravenous, 0.4 mg/kg, cycle 1 day 1, diabetic expansion, 0.4 mg/kg, n=6, geometric mean (%CV)): 138 ng/mL
- Cmax ([2]; human, plasma, intravenous, 0.4 mg/kg, cycle 1 day 15, cohort 3, 0.4 mg/kg, n=2, range): 70.1 to 193 ng/mL
- Cmax ([2]; human, plasma, intravenous, 0.4 mg/kg, cycle 1 day 15, diabetic expansion, 0.4 mg/kg, n=6, geometric mean (%CV)): 151 ng/mL
- half-life ([2]; human, plasma, intravenous, 0.4 mg/kg, t1/2, cycle 1 day 1, cohort 3, 0.4 mg/kg, n=1): 60.6 h
- half-life ([2]; human, plasma, intravenous, 0.4 mg/kg, t1/2, cycle 1 day 1, diabetic expansion, 0.4 mg/kg, n=2, value (%)): 34.4 h
- Tmax ([2]; human, plasma, intravenous, 0.4 mg/kg, tmax, cycle 1 day 1, cohort 3, 0.4 mg/kg, n=2, range): 0.5 to 1.1 h
- Tmax ([2]; human, plasma, intravenous, 0.4 mg/kg, tmax, cycle 1 day 15, cohort 3, 0.4 mg/kg, n=2, range): 0.5 to 1.1 h
- Tmax [2, 6]: 1 h
- concentration at 8 day of cycle 1 [2, 6]: 4.92 ng/mL
- AUC(0-t) ([2]; human, plasma, intravenous, 0.8 mg/kg, AUC(0–25), cycle 1 day 1, MTD 0.8 mg/kg combined, n=41, geometric mean (%CV)): 1590 ng·h/mL
- AUC(0-t) ([2]; human, plasma, intravenous, 0.8 mg/kg, AUC(0–25), cycle 1 day 1, NHL expansion, 0.8 mg/kg, n=9, geometric mean (%CV)): 1350 ng·h/mL
- AUC(0-t) ([2]; human, plasma, intravenous, 0.8 mg/kg, AUC(0–25), cycle 1 day 1, cohort 4, 0.8 mg/kg, n=7, geometric mean (%CV)): 1600 ng·h/mL
- AUC(0-t) ([2]; human, plasma, intravenous, 0.8 mg/kg, AUC(0–25), cycle 1 day 15, MTD 0.8 mg/kg combined, n=35, geometric mean (%CV)): 1570 ng·h/mL
- AUC(0-t) ([2]; human, plasma, intravenous, 0.8 mg/kg, AUC(0–25), cycle 1 day 15, NHL expansion, 0.8 mg/kg, n=8, geometric mean (%CV)): 1760 ng·h/mL
- AUC(0-t) ([2]; human, plasma, intravenous, 0.8 mg/kg, AUC(0–25), cycle 1 day 15, cohort 4, 0.8 mg/kg, n=6, geometric mean (%CV)): 1480 ng·h/mL
- AUC(0-t) ([2]; human, plasma, intravenous, 0.8 mg/kg, AUC(0–tlast), cycle 1 day 1, MTD 0.8 mg/kg combined, n=41, geometric mean (%CV)): 2880 ng·h/mL
- AUC(0-t) ([2]; human, plasma, intravenous, 0.8 mg/kg, AUC(0–tlast), cycle 1 day 1, NHL expansion, 0.8 mg/kg, n=9, geometric mean (%CV)): 2710 ng·h/mL
- AUC(0-t) ([2]; human, plasma, intravenous, 0.8 mg/kg, AUC(0–tlast), cycle 1 day 1, cohort 4, 0.8 mg/kg, n=7, geometric mean (%CV)): 2940 ng·h/mL
- Cmax ([2]; human, plasma, intravenous, 0.8 mg/kg, cycle 1 day 1, MTD 0.8 mg/kg combined, n=41, geometric mean (%CV)): 454 ng/mL
- Cmax ([2]; human, plasma, intravenous, 0.8 mg/kg, cycle 1 day 1, cohort 4, 0.8 mg/kg, n=7, geometric mean (%CV)): 293 ng/mL
- Cmax ([2]; human, plasma, intravenous, 0.8 mg/kg, cycle 1 day 15, MTD 0.8 mg/kg combined, n=36, geometric mean (%CV)): 463 ng/mL
- Cmax ([2]; human, plasma, intravenous, 0.8 mg/kg, cycle 1 day 15, NHL expansion, 0.8 mg/kg, n=8, geometric mean (%CV)): 507 ng/mL
- Cmax ([2]; human, plasma, intravenous, 0.8 mg/kg, cycle 1 day 15, cohort 4, 0.8 mg/kg, n=6, geometric mean (%CV)): 370 ng/mL
- half-life ([2]; human, plasma, intravenous, 0.8 mg/kg, t1/2, cycle 1 day 1, MTD 0.8 mg/kg combined, n=28, value (%)): 38.2 h
- half-life ([2]; human, plasma, intravenous, 0.8 mg/kg, t1/2, cycle 1 day 1, NHL expansion, 0.8 mg/kg, n=8, value (%)): 38.9 h
- half-life ([2]; human, plasma, intravenous, 0.8 mg/kg, t1/2, cycle 1 day 1, cohort 4, 0.8 mg/kg, n=4, value (%)): 42.3 h
- half-life ([2]; human, plasma, intravenous, 0.8 mg/kg, t1/2, cycle 1 day 1, solid tumors expansion, 0.8 mg/kg, n=16, value (%)): 36.9 h
- half-life ([2]; human, plasma, intravenous, 0.8 mg/kg, terminal half-life, MTD 0.8 mg/kg, coefficient of variation 43%): 38.2 h
- Tmax ([2]; human, plasma, intravenous, 0.8 mg/kg, tmax, cycle 1 day 1, cohort 4, 0.8 mg/kg, n=7, value (range)): 1.1 h
- Tmax ([2]; human, plasma, intravenous, 0.8 mg/kg, tmax, cycle 1 day 15, NHL expansion, 0.8 mg/kg, n=8, value (range)): 0.8 h
- AUC(0-t) ([2]; human, plasma, intravenous, 1.2 mg/kg, AUC(0–25), cycle 1 day 1, cohort 5, 1.2 mg/kg, n=2, range): 2510 to 3820 ng·h/mL
- AUC(0-t) ([2]; human, plasma, intravenous, 1.2 mg/kg, AUC(0–tlast), cycle 1 day 1, cohort 5, 1.2 mg/kg, n=2, range): 4090 to 5230 ng·h/mL
- Cmax ([2]; human, plasma, intravenous, 1.2 mg/kg, cycle 1 day 1, cohort 5, 1.2 mg/kg, n=2, range): 616 to 739 ng/mL
- half-life ([2]; human, plasma, intravenous, 1.2 mg/kg, t1/2, cycle 1 day 1, cohort 5, 1.2 mg/kg, n=1): 33 h
- Tmax ([2]; human, plasma, intravenous, 1.2 mg/kg, tmax, cycle 1 day 1, cohort 5, 1.2 mg/kg, n=2, range): 0.6 to 1.3 h
